Drawing on patent US10265310B2, “6-membered cyclic amines or lactames substituted with urea and phenyl” (GRÜNENTHAL GMBH, priority 2016, dated 2019), this text covers EC50 for 20 molecules.

One test has as its target FPR1 (Homo sapiens (Human), UniProt P21462). Description: Agonistic activity (calcium FLIPR) in hFPR1-Gα15-CHO cells. It is filed as cell-based. The note with it: FLIPR Calcium 5 dye fluorescence, agonistic response. How it is done:
(§1) Cells (hFPR1-Gα15-CHO or hFPR2-Aq-CHO) are suspended in 10 mL of respective complete medium (F12(1×) HAM media; 10% HI-FBS; 0.1 mg/ml Hygromycin B and 0.2 mg/ml Zeocin [for hFPR1 only]; 0.4 mg/mL Geneticin and 0.25 mg/ml Zeocin [for hFPR2-Aq only]) and viability is checked using Trypan Blue exclusion. After washing, the cells are plated at 10,000 cells per well in 40 μL complete medium in a 384-well sterile clear bottom black plate and incubated in a 5% CO2 incubator at 37° C. for 18 hours. Plating media is removed from each well by decanting and gentle tapping before 30 μL of 0.5× Calcium 5 dye solution (0.5×FLIPR Calcium 5 dye (Molecular devices, R8186)); HBSS; 20 mM HEPES; 2.5 mM Probenecid; 0.025% Pluronic F-127; pH adjusted to 7.4) is added to each well and the plate is then incubated at 37° C. for 30 minutes. For the assay the plate is equilibrated at room temperature for 10 minutes before placing it in the FLIPR. Compounds are dissolved in DMSO and serially diluted over an 11 point half log (3.16 fold) dilution (2 mM to 20 nM). Compounds are then diluted 1:50 in assay buffer (HBSS; 20 mM HEPES; 2.5 mM Probenecid; 0.05% gelatin; 0.1% BSA; pH adjusted to 7.4) just before performing the assay. Compounds are finally added to the respective wells of the cell plate (final assay concentration 10 μM to 100 pM) using the FLIPR (e.g. FLIPR-Tetra, Molecular Devices) and fluorescence readings are captured for 5 minutes. The increase in fluorescence from the basal reading in the presence of the compounds is compared with that of the control wells (wells having no compound) to calculate the activity of the compounds. The EC50 values of the compounds can be determined using e.g. Graph pad Prism software.
(§2) Assay Method for Measuring Agonistic Activity of Compounds in hFPR1-Gα15-CHO and hFPR2-Aq-CHO Cell
(§3) Cryo-vial containing 6×10^6 cells (hFPR1-Gα15-CHO or hFPR2-Aq-CHO) was thawed in a 37° C. water bath. Cells were suspended in 10 ml of respective complete growth media (F12(1×) HAM media (Gibco; Cat#11765); 10% HI-FBS (Gibco; Cat#10082); 0.1 mg/ml Hygromycin B (Invitrogen; Cat#10687-010) [for hFPR1 only]; 0.2 mg/ml Zeocin (Invitrogen; Cat#R25001) [for hFPR1 only]; 0.4 mg/ml Geneticin (Gibco; Cat#10131) [for hFPR2-Aq only]; 0.25 mg/ml Zeocin (Invitrogen; Cat#R25001) [for hFPR2-Aq only]) in a 15 ml centrifuge tube. The cell viability was checked with the help of Trypan Blue dye. Upon washing the cells, those were plated in a 384-well sterile clear bottom black plate (Greiner Bioone Cat#781091) so that, each well contained 10,000 cells in 40 μl complete growth media. The plate was incubated in a 5% CO2 incubator at 37° C. for 18 hours.
(§4) Before assay on the next day, the cell plating media was removed from each well of the plate by decanting and gentle tapping. 30 μl, 0.11 of 0.5× Calcium 5 dye solution (0.5×FLIPR Calcium 5 dye (Molecular devices Cat# R8186); HBSS (Invitrogen; Cat#14025); 20 mM HEPES (Sigma; Cat#H0887); 2.5 mM Probenecid (Sigma; Cat#P8761); 0.025% Pluronic F-127 (Sigma; Cat#P2443); pH adjusted to 7.4) was added to each well. The plate was then incubated at 37° C. for 30 minutes. Following which the plate was equilibrated at room temperature for 10 minutes before placing it in a 384 well FLIPR for assay. Compounds were dissolved in DMSO and serially diluted following 11 point half log (3.16 fold) dilution with a starting concentration of 2 mM (Final assay concentration 10 μM). Aliquots of above mentioned each dilution was mixed with assay buffer (HBSS (Invitrogen; Cat#14025); 20 mM HEPES (Sigma; Cat#H0887); 2.5 mM Probenecid (Sigma; Cat#P8761); 0.05% gelatin (Sigma; Cat#G1890); 0.1% BSA (Sigma; Cat#A3059); pH adjusted to 7.4) just before performing the assay. Compounds were added to the respective wells of the assay ready cell plate with the help of the FLIPR (FLIPR Tetra) and fluorescence readings were captured for 5 minutes to measure any agonistic response of the compounds. […]

For another test, the target named is FPR2 (Homo sapiens (Human), UniProt P25090). Description: Agonistic activity (calcium FLIPR) in hFPR2-Aq-CHO cells. The class given is cell-based. To be noted: FLIPR Calcium 5 dye fluorescence, agonistic response. How it is done: as §1, §2, §3, §4
FPR2, sequence (P25090 whole entry): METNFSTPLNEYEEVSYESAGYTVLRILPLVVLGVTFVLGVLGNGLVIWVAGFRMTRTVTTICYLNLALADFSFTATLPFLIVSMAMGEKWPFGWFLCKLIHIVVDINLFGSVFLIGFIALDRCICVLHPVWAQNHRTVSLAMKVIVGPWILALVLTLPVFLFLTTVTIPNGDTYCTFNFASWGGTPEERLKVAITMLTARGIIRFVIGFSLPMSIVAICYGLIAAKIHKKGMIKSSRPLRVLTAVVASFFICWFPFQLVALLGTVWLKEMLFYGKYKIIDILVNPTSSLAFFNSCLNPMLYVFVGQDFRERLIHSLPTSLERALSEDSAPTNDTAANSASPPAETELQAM

FPR1, sequence (P21462 whole entry): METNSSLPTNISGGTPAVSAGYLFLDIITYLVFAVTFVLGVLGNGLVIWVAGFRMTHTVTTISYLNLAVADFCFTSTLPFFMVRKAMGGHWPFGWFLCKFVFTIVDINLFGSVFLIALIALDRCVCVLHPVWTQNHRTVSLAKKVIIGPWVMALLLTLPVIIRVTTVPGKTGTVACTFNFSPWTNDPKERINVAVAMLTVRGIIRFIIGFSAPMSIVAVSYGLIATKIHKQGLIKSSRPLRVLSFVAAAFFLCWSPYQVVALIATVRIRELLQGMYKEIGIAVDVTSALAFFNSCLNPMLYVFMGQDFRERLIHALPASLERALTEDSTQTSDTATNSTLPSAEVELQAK

In the case of `COc1cc(F)c([C@@H]2CC(=O)N(CCO)C[C@H]2NC(=O)Nc2ccc(Cl)cc2)c(F)c1` (racemic) [Example 31, rac-trans-1-(4-chlorophenyl)-3-(4-(2,6-difluoro-4-methoxyphenyl)-1-(2-hydroxyethyl)-6-oxopiperidin-3-yl)urea], the EC50 (usually the concentration giving half of the maximal effect) on FPR1 is 1 to 1000 nM; at FPR2, less than 1 nM.
The matching figures for `COc1cc(F)c(C2CC(=O)NCC2NC(=O)Nc2ccc(Cl)cc2)c(F)c1` (single isomer, unassigned; ent1) [Example 49, trans-ent1-1-(4-chlorophenyl)-3-(4-(2,6-difluoro-4-methoxyphenyl)-6-oxopiperidin-3-yl)urea]: 1 to 1000 nM and 1 to 1000 nM.
The matching figures for `COc1ccc([C@@H]2CCN(C(=O)C(C)C)C[C@H]2NC(=O)Nc2ccc(Cl)cc2)cc1` (racemic) [Example 17, rac-trans-1-(4-chlorophenyl)-3-(1-isobutyryl-4-(4-methoxyphenyl)piperidin-3-yl)urea]: less than 1 nM and less than 1 nM.
The matching figures for `CCc1cc(F)c([C@@H]2CC(=O)NC[C@H]2NC(=O)Nc2ccc(Cl)cc2)c(F)c1` (racemic) [Example 69, rac-trans-1-(4-chlorophenyl)-3-(4-(4-ethyl-2,6-difluorophenyl)-6-oxopiperidin-3-yl)urea]: 1 to 1000 nM and 1 to 1000 nM.
On to `COc1cc(F)c([C@@H]2CC(=O)NC[C@H]2NC(=O)Nc2ccc(Cl)cc2)c(F)c1` (racemic) [Example 23, rac-trans-1-(4-chlorophenyl)-3-(4-(2,6-difluoro-4-methoxyphenyl)-6-oxopiperidin-3-yl)urea], for which the EC50 on FPR1 was 1 to 1000 nM; at FPR2, less than 1 nM.
For `COc1ccc(C2CCN(C(=O)C3CC3)CC2NC(=O)Nc2ccc(Cl)cc2)c(F)c1` (single isomer, unassigned; ent1) [Example 86, trans-ent1-1-(4-chlorophenyl)-3-(1-(cyclopropanecarbonyl)-4-(2-fluoro-4-methoxyphenyl)piperidin-3-yl)urea], the EC50 on FPR1 and at FPR2 was less than 1 nM in each case.
In the case of `COc1cc(F)c([C@@H]2CC(=O)NC[C@H]2NC(=O)Nc2cc3ccccc3s2)c(F)c1` (racemic) [Example 53, rac-trans-1-(Benzo[b]thiophen-2-yl)-3-[4-(2,6-difluoro-4-methoxy-phenyl)-6-oxo-piperidin-3-yl]-urea], the EC50 on FPR1 and on FPR2 was 1 to 1000 nM in each case.
For `COc1ccc([C@@H]2CCN(C(=O)CC(C)C)C[C@H]2NC(=O)Nc2ccc(Cl)cc2)cc1` (racemic) [Example 18, rac-trans-1-(4-chlorophenyl)-3-[4-(4-methoxyphenyl)-1-(3-methyl-butanoyl)-piperidin-3-yl]-urea], the EC50 at FPR1 and at FPR2 was less than 1 nM in each case.
Consider `COc1cc(F)c(C2CCNCC2NC(=O)Nc2ccc(Cl)cc2)c(F)c1` (single isomer, unassigned; ent1) [Example 36, trans-ent1-1-(4-chlorophenyl)-3-(4-(2,6-difluoro-4-methoxyphenyl)piperidin-3-yl)urea], for which the results for the EC50 on FPR1 and on FPR2 were 1 to 1000 nM and less than 1 nM, respectively.
The matching figures for `COc1cc(F)c([C@@H]2CCNC[C@H]2NC(=O)Nc2ccc(Cl)cc2)c(F)c1` (racemic) [Example 9, rac-trans-1-(4-chlorophenyl)-3-(4-(2,6-difluoro-4-methoxyphenyl)piperidin-3-yl)urea]: 1 to 1000 nM and less than 1 nM.
The matching figures for `COc1ccc([C@@H]2CCN(C(=O)C3CCOCC3)C[C@H]2NC(=O)Nc2ccc(Cl)cc2)cc1` (racemic) [Example 16, rac-trans-1-(4-chlorophenyl)-3-(4-(4-methoxyphenyl)-1-(tetrahydro-2H-pyran-4-carbonyl)piperidin-3-yl)urea]: less than 1 nM and less than 1 nM.
The matching figures for `COCCN1CC(NC(=O)Nc2ccc(Cl)cc2)C(c2ccc(F)cc2F)CC1=O` (single isomer, unassigned; ent2) [Example 64, trans-ent2-1-(4-Chlorophenyl)-3-[4-(2,4-difluoro-phenyl)-1-(2-methoxy-ethyl)-6-oxo-piperidin-3-yl]-urea]: 1 to 1000 nM and 1 to 1000 nM.
As for `COc1cc(F)c([C@@H]2CC(=O)NC[C@H]2NC(=O)Nc2csc(Cl)c2)c(F)c1` (racemic) [Example 52, rac-trans-1-(5-Chloro-thiophen-3-yl)-3-[4-(2,6-difluoro-4-methoxy-phenyl)-6-oxo-piperidin-3-yl]-urea], the EC50 at FPR1 is 1 to 1000 nM; on FPR2, less than 1 nM.
Consider `COc1ccc([C@@H]2CC(=O)N(CC(N)=O)C[C@H]2NC(=O)Nc2ccc(Cl)cc2)cc1` (racemic) [Example 20, rac-trans-2-(5-(3-(4-chlorophenyl)ureido)-4-(4-methoxyphenyl)-2-oxopiperidin-1-yl)acetamide], for which the results for the EC50 at FPR1 and at FPR2 were 1 to 1000 nM and less than 1 nM, respectively.
Regarding `O=C1CC(c2ccc(Cl)cc2)C(NC(=O)Nc2ccc(Cl)cc2)CN1` (single isomer, unassigned; ent1) [Example 91, trans-ent1-1-(4-chlorophenyl)-3-(4-(4-chlorophenyl)-6-oxopiperidin-3-yl)urea], the EC50 on FPR1 and on FPR2 was 1 to 1000 nM each time.
Turning to `COc1cc(F)c(C2CCN(C(=O)C3CC3)CC2NC(=O)Nc2ccc(Cl)cc2)c(F)c1` (single isomer, unassigned; ent1) [Example 39, trans-ent1-1-(4-chlorophenyl)-3-(1-(cyclopropanecarbonyl)-4-(2,6-difluoro-4-methoxyphenyl)piperidin-3-yl)urea], the EC50 on FPR1 was 1 to 1000 nM; at FPR2, less than 1 nM.
The matching figures for `COc1ccc([C@@H]2CCN(C(C)=O)C[C@H]2NC(=O)Nc2ccc(C(F)(F)F)nc2)cc1` (racemic) [Example 27, rac-trans-1-(1-acetyl-4-(4-methoxyphenyl)piperidin-3-yl)-3-(6-(trifluoromethyl)pyridin-3-yl)urea]: 1 to 1000 nM and 1 to 1000 nM.
The matching figures for `CS(=O)(=O)c1ccc([C@@H]2CC(=O)NC[C@H]2NC(=O)Nc2ccc(Cl)cc2)cc1` (racemic) [Example 75, rac-trans-1-(4-chlorophenyl)-3-(4-(4-(methylsulfonyl)phenyl)-6-oxopiperidin-3-yl)urea]: 1 to 1000 nM and 1 to 1000 nM.
The matching figures for `O=C(Nc1ccc(Cl)cc1)NC1CN(C(=O)C2CC2)CCC1c1ccccc1` (single isomer, unassigned; ent1) [Example 83, trans-ent1-1-(4-chlorophenyl)-3-(1-(cyclopropanecarbonyl)-4-phenylpiperidin-3-yl)urea]: 1 to 1000 nM and 1 to 1000 nM.
For the molecule `COc1cc(F)c([C@@H]2CC(=O)N(CC3CC3)C[C@H]2NC(=O)Nc2ccc(Cl)cc2)c(F)c1` (racemic) [Example 29, rac-trans-1-(4-chlorophenyl)-3-(1-(cyclopropylmethyl)-4-(2,6-difluoro-4-methoxyphenyl)-6-oxopiperidin-3-yl)urea], the EC50 at FPR1 was 1 to 1000 nM; on FPR2, less than 1 nM.
